Data set [1] deals with SkinEthic RHE cultures. Description: IL-1α and IL-8 activity assay in SkinEthic RHE cultures. The data set is classed as cell-based, human. The conditions noted are these: 6 μl test article, 72 hours. Here is the method:
(§1) SkinEthic RHE cultures were transferred into 6-well plates containing 1.0 mL/well growth media. The cultures were equilibrated at 37° C. and the media was changed daily. The cultures were subsequently placed in 60 mm petri dishes containing 3.5 mL growth media. 6 μl aliquots of the Test Articles shown in Table 3 were applied to duplicate cultures. The cultures were incubated at 37° C. for 72 hours. At the end of the incubation period, the growth media was collected and stored at −20° C. The tissues were cut in half and one half was placed in 10% NBF for histology, while the other half was placed in RNAlater™ solution (Ambion). The following analyses were performed: a) IL-1α and IL-8 activity assay; b) Hand E staining; c) Immunohistochemistry for K10, K19 and filaggrin; and d) qRT-PCR to quantitate K10, K19 and filaggrin expression.

Data set [2] concerns SkinEthic RHE cultures. Description: H and E staining and immunohistochemistry for K10, K19 and filaggrin in SkinEthic RHE cultures. The data set is classed as cell-based, human. Particulars: 6 μl test article, 72 hours. The method, then: as §1
Data set [3] deals with SkinEthic RHE cultures. The data set can be described thus: qRT-PCR of K10, K19 and filaggrin expression in SkinEthic RHE cultures. It counts as cell-based, human. Particulars: 6 μl test article, 72 hours. Here is the method:
as §1

Another data set concerns A431 cells. Description: PMA-induced IL-6 release from A431 cultures. The conditions noted are these: PMA 10 ng/mL; retinoids 0.01 to 1 μg/mL; 48 hours. It counts as cell-based, human. The method, then:
A431 cells were purchased from ATCC(CRL-1555). Cells were seeded onto 12-well plates at a density of 250,000 cells/well and incubated for 72 hours at 37° C./5% CO2 to allow cells to grow to confluency. Phorbol-12-myristate 13-acetate (PMA), diluted in DMSO (10 mg/mL stock), was added in a concentration of 10 ng/mL and retinoids were added in concentrations of 0.01 to 1 μg/mL from a 10 mg/mL stock solution in DMSO. Cultures were incubated for 48 hours at 37° C. At the end of the incubation period, growth media was collected and cell viability was determined using a CellTiterGlo assay kit (Promega). Concentrations of IL-6 were determined by ELISA and normalized based on cell viability.
It is known that PMA up regulates IL-6 expression through transactivation of the nuclear transcription factor, AP-1. Retinoids, such as tretinoin, are known to inhibit transactivation of AP-1 via retinoic acid receptors.

The nature of data set [4]: Reaction with benzoyl peroxide (BPO) in solution. The conditions noted are these: at all three temperatures (35° C., room temperature, 5° C.); BPO 50-fold excess by weight. The data set is classed as physicochemical. The method, then: The reaction of (i) tazarotene, tazarotene benzoate, hydroxy tazarotenic acid and tazarotene nicotinate with (ii) benzoyl peroxide (BPO) in 30% aqueous solutions was monitored at 35° C., room temperature and 5° C.
Individual solutions of each compound were prepared at approximately 0.25 mg/mL in acetonitrile:water (6:4 by volume). Reactions were initiated by mixing equal volumes of the test solution with an approximately 12 mg/mL solution of benzoyl peroxide (BPO) in acetonitrile:water (4:1 by volume). Therefore, the reaction solution contained approximately 0.125 mg/mL of the test compound and the BPO was at a 50-fold excess by weight (i.e. at the same ratio as a product containing 0.1% tazarotene and 5% BPO). Aliquots of the reaction solutions were stored at various temperatures protected from light.
Reactions were quenched by diluting 30 μL of the reaction solution to 50 mL with a diluent (acetonitrile:water in a ratio of 1:1 by volume) and storing the sample at 10° C. in the LC/MS sample tray or at 5° C. for storage. Duplicate samples were prepared at each time point (three at the start of the reaction) and the results were averaged together to generate a single value.
Samples were analyzed on a Waters Acquity UPLC with a Waters Xevo TQMS using an ESI source in the positive mode controlled by MassLynx V4.1 software. […]

The next data set can be described thus: in vitro. The conditions noted are these: human, human skin microsomes, pH 7.4.
Data set [5] in a line: Metabolism in the presence of human skin microsomes. The conditions noted are these: for Half-life / k constant: HSkM.
Description: (§2) Hepatic microsomal reactions were carried out in microcentrifuge tubes in the following manner. Human liver microsomes (0.5 or 1.0 mg/ml protein), Test Article (1 or 10 μM), paraoxon (0, 10 or 100 μM), NADPH regenerating system (10 mM glucose-6-phosphate, 1 unit/ml glucose-6-phosphate dehydrogenase, 1 mM NADP^+), magnesium chloride (5 mM) in 0.1 M potassium phosphate buffer, pH 7.4 were incubated at 37° C. in a shaking water bath. Reactions were initiated with the addition of substrate with the exception of the zero-time incubations. The total reaction volume was 0.2 ml. The reactions were incubated for 15, 30, 45 or 60 minutes, terminated with 0.2 ml ice-cold acetonitrile and then placed on ice. For zero-time incubations, ice cold acetonitrile was added to the mixture containing microsomes, along with NADPH regenerating system, magnesium chloride in phosphate buffer and the Test Article. Each time point was carried out in triplicate.
(§3) Five time points were chosen, but because of the limitation of human skin microsome supply, each one was carried out in duplicate. Skin microsomal reactions were carried out as described above for hepatic microsomal reactions with the following two exceptions. Firstly, the total reaction volume was 0.1 mL. Secondly, incubations were terminated with 0.1 mL acetonitrile.

The text below walks through data of patent publication US9062037B2, “Tazarotene derivatives” (Stiefel Laboratories, Inc., priority 2009, dated 2015).

Description for in vitro: as §2, §3

`CCOC(=O)c1ccc(C#Cc2ccc3c(c2)C(C)(C)CC(OC(=O)c2ccccc2)S3)nc1` (centres unmarked) [Compound 4, 6-(2-(2-benzoyloxy-4,4-dimethylthiochroman-6-yl)ethynyl)nicotinic acid, ethyl ester]: in the data set with SkinEthic RHE cultures [1], the “IL-1α activity compared to untreated and vehicle controls” value was “only slightly increased”. Also, the filaggrin by immunohistochemistry result in the data set on SkinEthic RHE cultures [2] is listed as “down regulated”. Also, the “down regulation of K10 gene expression compared to untreated and vehicle controls” value in the data set on SkinEthic RHE cultures [3] is given as “uninterpretable”. Also, the “down regulation of filaggrin gene expression compared to untreated and vehicle controls” value in the data set on SkinEthic RHE cultures [3] is “equivocal”. In the data set on A431 cells, the “PMA-induced IL-6 release” value was “significantly decreased”. In data set [4], the “less reactive with BPO than tazarotene and hydroxy tazarotenic acid” value was about 25 times. Moreover, the half-life at 10 µM in “in vitro” is 6.8 h. The “rate of metabolism by human skin microsomes relative to human liver microsomes” value in data set [5] is on record as “slower rate”. Also, the Half-life in data set [5] (1 μM, Complete) turned out to be 8.25 h; in data set [5] (1 μM, Without NADPH) it was 3.62 h; in data set [5] (10 μM, without NADPH) it was 7.7 h. Also, the k constant in data set [5] (1 μM, Complete) was −0.0014; in data set [5] (1 μM, Without NADPH) it was −0.0032; in data set [5] (10 μM, Complete) it was −0.0017; in data set [5] (10 μM, without NADPH), −0.0015. Also, the metabolized in data set [5] (after 150 min, 2 mg/ml human skin microsomes) is reported as 20%.

Regarding `CCOC(=O)c1ccc(C#Cc2ccc3c(c2)C(C)(C)CCS3)nc1` [Tazarotene, ethyl 6-[2-(4,4-dimethylthiochroman-6-yl)-ethynyl nicotinate], the “IL-1α activity compared to untreated and vehicle controls” value in the data set with SkinEthic RHE cultures [1] is recorded as “only slightly increased”.

By half-life is commonly meant the time needed for the level to fall by half in the phase considered.
